# Test results as given in patent US8852928B2, “LexA-based chemical-inducible gene expression system for use in transgenic animals” (Temasek Life Sciences Laboratory Limited, priority 2007, dated 2014).
# “Also recorded” adds a separate entry of the source.
# How the values were obtained:
# LexPR transactivator [1] = target: T1, LexPR transactivator (Homo sapiens, UniProt P06401); experiment: Time required to switch off EGFP reporter expression after mifepristone withdrawal; assay type: in vivo, zebrafish; set-up: key to Reporter expression, RU486 incubation / Reporter expression after RU486 withdrawal / Reporter expression, continuous induction (time of RU486 incubation): +: Fluorescence signal is similar to the control.; ±: Fluorescence signal is obviously weaker that in control.; −: No EGFP fluorescence (except autofluorescence)observed using the fluorescent stereomicroscope
# T1 construct: expressed in transfected cells; host or cells: germline-transgenic zebrafish (Danio rerio) carrying the Ds transposon driver cassette pDs(krt8:LPR-LOP:G4) or derivatives
# T1 sequence (P06401 640-914): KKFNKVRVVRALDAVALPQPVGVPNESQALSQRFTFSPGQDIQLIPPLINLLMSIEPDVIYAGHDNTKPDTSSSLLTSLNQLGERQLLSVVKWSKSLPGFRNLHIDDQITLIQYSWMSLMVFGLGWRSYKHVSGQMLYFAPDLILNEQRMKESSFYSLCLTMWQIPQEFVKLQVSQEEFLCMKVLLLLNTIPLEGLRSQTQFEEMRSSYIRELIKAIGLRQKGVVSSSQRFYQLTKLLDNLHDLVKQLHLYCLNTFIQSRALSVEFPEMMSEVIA
# Text: To avoid confusion, the corresponding developmental times are indicated. A Nikon SMZ1600 fluorescent stereomicroscope was used for rough estimation of the EGFP fluorescence.
# LexPR transactivator [2] = target: T1, LexPR transactivator; experiment: Mifepristone-induced EGFP reporter fluorescence in LexPR driver-reporter transgenic fish; assay type: in vivo, zebrafish
# Text: Generating transgenic fish using Ac/Ds transposon system: Transgenic fish carrying insertions of the driver and effector constructs containing Ds cis-required sequences (as described herein) were generated as previously described (Emelyanov et al., 2006). 5-10 pg of plasmid DNA was co-injected into zebrafish embryos (yolk center) with 25-50 pg of in vitro synthesized transposase mRNA at the 1-2-cell stage. […] Only the lines that segregated as a single locus (produced 1:1 ratio when outcrossed to nontransgenic fish) were selected.
# LexPR transactivator [3] = target: T1, LexPR transactivator; experiment: RT-PCR detection of EGFP transcript after mifepristone withdrawal; assay type: in vivo, zebrafish; conditions: 5 days after withdrawal; 12 hours induction with 1 μM
# LexPR transactivator [4] = target: T1, LexPR transactivator; experiment: Trans-activation of mCherry effector in effector and double transgenic fish; assay type: in vivo, zebrafish; conditions: 1 μM
# Protocol: Two independent driver lines with different LexPR transactivator expression patterns (shown on FIGS. 4A, 4D) were crossed with two independent transgenic effector lines, which carried mCherry gene under control of the LexOP. […] Images were captured at 96 hours post fertilization.
# This effector cassette harbors a gene for red fluorescent protein “mCherry” under the control of the LexOP sequence (Example 3).
# LexPR transactivator [5] = target: T1, LexPR transactivator; experiment: Rate of transcription induction, whole mount in situ hybridization for EGFP transcript; assay type: in vivo, zebrafish; conditions: 1 μM
# Protocol: RNA in situ hybridization: Whole mount in situ hybridization using antisense RNA probes for full length LexPR transactivator and EGFP labeled with digoxigenin (Roche, USA) was carried out as previously described (Oxtoby and Jowett, 1993). After in situ hybridization stained embryos were mounted in PBS-glycerol and viewed using Nikon SMZ1600 stereomicroscope. Images were taken with Nikon DXM1200F digital camera with the Nikon ACT-1 software and processed using Adobe Photoshop 7.0.1 software.
# To accurately estimate the rate of induction, it is more appropriate to measure the transcript rather than the protein product, especially if the gene of interest contains sequences for RNAi, microRNA or other non-coding RNAs.
# zebrafish development = experiment: Side effects on development of LexPR transgenic fish upon induction; assay type: in vivo
# Text: FIG. 13b: Control wild type fish. FIG. 13c: Transgenic F2 embryos harboring the LexPR driver-reporter cassette described in this manuscript.
# LexPR transactivator [6] = target: T1, LexPR transactivator; experiment: Control of maternal EGFP expression by treating transgenic females; assay type: in vivo, zebrafish; conditions: 1 μM for 12 hours before crossing
smiles,measurement,setting,value
CC#C[C@]1(O)CC[C@H]2[C@@H]3CCC4=CC(=O)CCC4=C3[C@@H](c3ccc(N(C)C)cc3)C[C@@]21C [mifepristone],Reporter expression after RU486 withdrawal,"LexPR transactivator [1]; 100 nM, 1 hour RU486 incubation, 144 h after withdrawal, 181hpf",−
same,Minimal time after RU486 withdrawal to turn off the reporter expression,"LexPR transactivator [1]; 100 nM, 1 hour induction",2 days
same,"Reporter expression, RU486 incubation","LexPR transactivator [1]; 100 nM, 12 hours RU486 incubation - withdrawal, at 12 h incubation, 48hpf",+
same,Reporter expression after RU486 withdrawal,"LexPR transactivator [1]; 100 nM, 12 hours RU486 incubation, 12 h after withdrawal, 60hpf",+
same,Reporter expression after RU486 withdrawal,"LexPR transactivator [1]; 100 nM, 12 hours RU486 incubation, 24 h after withdrawal, 72hpf",±
same,Reporter expression after RU486 withdrawal,"LexPR transactivator [1]; 100 nM, 12 hours RU486 incubation, 48 h after withdrawal, 96hpf",±
same,Reporter expression after RU486 withdrawal,"LexPR transactivator [1]; 100 nM, 12 hours RU486 incubation, 72 h after withdrawal, 120hpf",−
same,Reporter expression after RU486 withdrawal,"LexPR transactivator [1]; 100 nM, 12 hours RU486 incubation, 96 h after withdrawal, 144hpf",−
same,Reporter expression after RU486 withdrawal,"LexPR transactivator [1]; 100 nM, 12 hours RU486 incubation, 120 h after withdrawal, 168hpf",−
same,Reporter expression after RU486 withdrawal,"LexPR transactivator [1]; 100 nM, 12 hours RU486 incubation, 144 h after withdrawal, 192hpf",−
same,Minimal time after RU486 withdrawal to turn off the reporter expression,"LexPR transactivator [1]; 100 nM, 12 hours induction",3 days
same,"Reporter expression, continuous induction (time of RU486 incubation)","LexPR transactivator [1]; 100 nM, 24-156 h incubation, 60-192 hpf",+
same,"Reporter expression, continuous induction (time of RU486 incubation)","LexPR transactivator [1]; 100 nM, 1 h incubation",−
same,"Reporter expression, continuous induction (time of RU486 incubation)","LexPR transactivator [1]; 100 nM, 12 h incubation",+
same,"Reporter expression, continuous induction (time of RU486 incubation)","LexPR transactivator [1]; 100 nM, 13 h incubation, 49hpf",+
same,"Reporter expression, continuous induction (time of RU486 incubation)","LexPR transactivator [1]; 100 nM, 24 h incubation, 60hpf",+
same,"Reporter expression, RU486 incubation","LexPR transactivator [1]; 1 μM, 1 hour RU486 incubation - withdrawal, at 1 h incubation, 37hpf",−
same,Reporter expression after RU486 withdrawal,"LexPR transactivator [1]; 1 μM, 1 hour RU486 incubation, 12 h after withdrawal, 49hpf",+
same,Reporter expression after RU486 withdrawal,"LexPR transactivator [1]; 1 μM, 1 hour RU486 incubation, 24 h after withdrawal, 61hpf",+
same,Reporter expression after RU486 withdrawal,"LexPR transactivator [1]; 1 μM, 1 hour RU486 incubation, 48 h after withdrawal, 85hpf",+
same,Reporter expression after RU486 withdrawal,"LexPR transactivator [1]; 1 μM, 1 hour RU486 incubation, 72 h after withdrawal, 109hpf",±
same,Reporter expression after RU486 withdrawal,"LexPR transactivator [1]; 1 μM, 1 hour RU486 incubation, 96 h after withdrawal, 133hpf",±
same,Reporter expression after RU486 withdrawal,"LexPR transactivator [1]; 1 μM, 1 hour RU486 incubation, 120 h after withdrawal, 157hpf",−
same,Reporter expression after RU486 withdrawal,"LexPR transactivator [1]; 1 μM, 1 hour RU486 incubation, 144 h after withdrawal, 181hpf",−
same,Minimal time after RU486 withdrawal to turn off the reporter expression,"LexPR transactivator [1]; 1 μM, 1 hour induction",5 days
same,"Reporter expression, RU486 incubation","LexPR transactivator [1]; 1 μM, 12 hours RU486 incubation - withdrawal, at 12 h incubation, 48hpf",+
same,Reporter expression after RU486 withdrawal,"LexPR transactivator [1]; 1 μM, 12 hours RU486 incubation, 12 h after withdrawal, 60hpf",+
same,Reporter expression after RU486 withdrawal,"LexPR transactivator [1]; 1 μM, 12 hours RU486 incubation, 24 h after withdrawal, 72hpf",+
same,Reporter expression after RU486 withdrawal,"LexPR transactivator [1]; 1 μM, 12 hours RU486 incubation, 48 h after withdrawal, 96hpf",+
same,Reporter expression after RU486 withdrawal,"LexPR transactivator [1]; 1 μM, 12 hours RU486 incubation, 72 h after withdrawal, 120hpf",±
same,Reporter expression after RU486 withdrawal,"LexPR transactivator [1]; 1 μM, 12 hours RU486 incubation, 96 h after withdrawal, 144hpf",±
same,Reporter expression after RU486 withdrawal,"LexPR transactivator [1]; 1 μM, 12 hours RU486 incubation, 120 h after withdrawal, 168hpf",±
same,Reporter expression after RU486 withdrawal,"LexPR transactivator [1]; 1 μM, 12 hours RU486 incubation, 144 h after withdrawal, 192hpf",−
same,Minimal time after RU486 withdrawal to turn off the reporter expression,"LexPR transactivator [1]; 1 μM, 12 hours induction",6 days
same,"Reporter expression, continuous induction (time of RU486 incubation)","LexPR transactivator [1]; 1 μM, 24-156 h incubation, 60-192 hpf",+
same,"Reporter expression, continuous induction (time of RU486 incubation)","LexPR transactivator [1]; 1 μM, 1 h incubation",−
same,"Reporter expression, continuous induction (time of RU486 incubation)","LexPR transactivator [1]; 1 μM, 12 h incubation",+
same,"Reporter expression, continuous induction (time of RU486 incubation)","LexPR transactivator [1]; 1 μM, 13 h incubation, 49hpf",+
same,"Reporter expression, continuous induction (time of RU486 incubation)","LexPR transactivator [1]; 1 μM, 24 h incubation, 60hpf",+
same,Duration of EGFP fluorescence in mifepristone-free water,LexPR transactivator [1]; following 12 hours treatment with 1 μM,5 days
same,Reporter expression at lowest inducible concentration,LexPR transactivator [2]; 1 nM,significantly weaker reporter expression
same,EGFP expression induced,"LexPR transactivator [2]; 10 nM, after 24 hours of incubation",Strong EGFP expression
same,Time until EGFP fluorescence was observed after adding mifepristone,LexPR transactivator [2]; 1 μM and 100 nM final concentration in growth water,6 to 9 h
same,Lowest inducible concentration,"LexPR transactivator [2]; EGFP reporter, growth water",1 nM
same,Concentration required for effective transcription induction,LexPR transactivator [2]; in the growth water,0.01 to 1 µM
same,EGFP transcript by RT-PCR after withdrawal,LexPR transactivator [3],can be detected
same,Background mCherry fluorescence in effector lines (effector cassette only),LexPR transactivator [4],No background mCherry fluorescence was detected; also recorded: not detected
same,Reporter expression in double transgenic embryos (driver and effector),LexPR transactivator [4],both reporters (EGFP/driver and mCherry/effector) were co-expressed in the same cells
same,Time of induction to maximum transcript level,LexPR transactivator [5],approximately nine
same,"Effect on embryo development and cell morphology, LexPR driver-reporter F2 embryos",zebrafish development; 1 μM in the growth water 10 hpf onwards,does not affect embryo development and morphology of the EGFP-positive cells
same,Side effects on zebrafish development,"zebrafish development; 10 μM at 1-cell stage, LexPR system",did not observe obvious side effects
same,Maternal EGFP expression in offspring of treated transgenic F2 females,LexPR transactivator [6],produced GFP-positive eggs; also recorded: All the F3 embryos showed maternal EGFP expression
